One test addresses T1, Human ALDH1A2 (Homo sapiens, UniProt O94788).
T1 construct: purchased MyBioSource MBS1005929
T1 sequence (O94788 1-518): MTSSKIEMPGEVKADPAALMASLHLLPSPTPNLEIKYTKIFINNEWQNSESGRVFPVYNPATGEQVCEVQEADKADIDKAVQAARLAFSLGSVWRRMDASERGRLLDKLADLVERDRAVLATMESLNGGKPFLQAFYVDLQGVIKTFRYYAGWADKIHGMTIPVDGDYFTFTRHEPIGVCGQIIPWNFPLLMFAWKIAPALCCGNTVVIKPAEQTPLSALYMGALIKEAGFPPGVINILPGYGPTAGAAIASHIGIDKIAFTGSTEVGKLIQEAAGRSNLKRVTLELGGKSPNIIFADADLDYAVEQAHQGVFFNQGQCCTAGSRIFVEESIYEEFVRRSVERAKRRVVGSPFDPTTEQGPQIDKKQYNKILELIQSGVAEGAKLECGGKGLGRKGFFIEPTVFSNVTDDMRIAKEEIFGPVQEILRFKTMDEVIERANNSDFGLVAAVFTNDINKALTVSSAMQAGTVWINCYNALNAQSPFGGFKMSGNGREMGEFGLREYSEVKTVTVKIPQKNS
Nature of the test: 1,536-well enzymatic assay (NADH fluorescence), ALDH1A2. Type of test: biochemical. The text has this: (§1) To validate our optimized assay, we assembled a set of 20 previously reported ALDH inhibitors, with varying degrees of target specificity (Table 1 and S4 Fig). […] Briefly, the assay measures the dehydrogenase activity of recombinant human ALDH1A1, ALDH1A2, ALDH1A3, ALDH2 or ALDH3A1 using NAD(P)^+ and either propionaldehyde or benzaldehyde as substrates. An orthogonal resorufin-based assay format was also run with isolated ALDH1A1 to rule out potential false positives due to intrinsic compound fluorescence.
(§2) Human ALDH1A1 and ALDH3A1 were expressed and purified as described elsewhere. Human ALDH2 was purchased from Abcam (ab87415). Human ALDH1A2 and ALDH1A3 were purchased from MyBioSource (MBS1005929; San Diego, CA) and ThermoFisher (11636H07E50), respectively. The inhibitory activity of compounds against ALDHs was measured according to protocols described previously. Briefly, 3 μL of enzyme (final concentrations of 20 nM for ALDH1A1, 50 nM for ALDH1A2, 50 nM for ALDH1A3, 75 nM for ALDH2 and 5 nM for ALDH3A1) in assay buffer (100 mM HEPES pH 7.5 with 0.01% Tween 20) were dispensed into a 1,536-well solid-bottom black plate (Greiner Bio One, Monroe, NC). […] Samples were incubated (room temperature, protected from light) for 15 minutes followed by a 1 μL substrate addition of NAD^+ and Propionaldehyde (final concentrations of 1 mM and 80 μM, respectively) for ALDH1A1, 1A2, 1A3, and ALDH2 or NADP^+ and benzaldehyde (final concentrations of 1 mM and 200 μM, respectively) for ALDH3A1. Plates were centrifuged at 1,000 rpm for 15 seconds, then read in kinetic mode on a ViewLux High-throughput CCD imager (PerkinElmer, Waltham, MA) equipped with standard UV fluorescence optics (340 nm excitation, 450 nm emission) for 5 (ALDH1A1, ALDH1A2, ALDH2, ALDH3A1) or 30 (ALDH1A3) minutes. The change in fluorescence intensity over the 5- or 30-minute reaction period was normalized against no-inhibitor and no-enzyme controls and the resulting percent inhibition data were fitted to a 4-parameter Hill equation. Bay-11 7085 was used as intraplate control. To account for artifacts due to intrinsic compound fluorescence in the above spectrum, compounds were also tested in an orthogonal resorufin assay format with optics of excitation 525 nm/emission 598 nm as described before. The same parameters as the NADH assay were used for the resorufin assay, with the addition of (final) 133 μg/mL diaphorase and 37 μM resazurin to the assay solution. Same controls were used in both formats.

The target of the next test is T2, Human ALDH1A3 (Homo sapiens, UniProt P47895).
T2 construct: purchased ThermoFisher 11636H07E50
T2 sequence (P47895 1-512): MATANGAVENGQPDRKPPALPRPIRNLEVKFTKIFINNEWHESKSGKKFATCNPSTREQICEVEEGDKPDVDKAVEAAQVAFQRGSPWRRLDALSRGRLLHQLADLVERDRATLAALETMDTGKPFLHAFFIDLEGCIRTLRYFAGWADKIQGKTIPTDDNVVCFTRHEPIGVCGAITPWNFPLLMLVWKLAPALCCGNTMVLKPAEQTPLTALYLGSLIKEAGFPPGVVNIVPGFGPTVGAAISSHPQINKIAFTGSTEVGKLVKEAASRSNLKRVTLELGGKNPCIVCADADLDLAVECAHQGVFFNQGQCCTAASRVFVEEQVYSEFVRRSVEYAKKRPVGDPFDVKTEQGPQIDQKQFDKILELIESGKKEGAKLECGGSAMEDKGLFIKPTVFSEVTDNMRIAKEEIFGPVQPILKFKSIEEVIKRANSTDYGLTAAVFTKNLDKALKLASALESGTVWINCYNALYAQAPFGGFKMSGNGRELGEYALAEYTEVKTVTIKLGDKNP
In words: 1,536-well enzymatic assay (NADH fluorescence), ALDH1A3. It is filed as biochemical.
From the text: as §1, §2

Where [1] appears, read: validation set, 50 nM enzyme, NAD+ and propionaldehyde, read-out: Biochemical IC50 ALDH1A2.
[2] abbreviates: validation set, 50 nM enzyme, NAD+ and propionaldehyde, read-out: Biochemical IC50 ALDH1A3.
The mark [3] stands for this setting: hits of dual cell-based screen (Table 2), read-out: Biochemical IC50 ALDH1A3.

This passage reports IC50 results from publication PMC5271370, “A High-Content Assay Enables the Automated Screening and Identification of Small Molecules with Specific ALDH1A1-Inhibitory Activity” (PLoS ONE, 2017).

pIC50: −log10 of the molar value. Where two headings read alike, the source gives them in different places.

The pIC50 is the negative decadic logarithm of the IC50, by convention in mol/L. As for `CCOc1ccc(NCC(=O)Nc2ccc(Cl)cc2C)cc1` [CID 725345], the pIC50 at Human ALDH1A2 (setting [1]) is 6.47; at Human ALDH1A3 (setting [2]) it was 5.42.

In the case of `CCN(CC)c1ccc(C=O)cc1` [DEAB, 4-N,N-diethylaminobenzaldehyde], the pIC50 was 5.47 at Human ALDH1A2 (setting [1]) and 4.62 on Human ALDH1A3 (setting [2]).

As for `CC(C)=CCCC(C)=CC=O` (mixture of isomers) [Citral], on Human ALDH1A3 (setting [2]), the pIC50 is 5.57.

On to `CCN(CC)C(=S)SSC(=S)N(CC)CC` [Disulfiram], for which the pIC50 was 6.85 on Human ALDH1A2 (setting [1]) and 6.17 at Human ALDH1A3 (setting [2]).

Take `COc1ccc(C(=O)CCN(C)C)cc1F` [Aldi-2]: the pIC50 at Human ALDH1A2 (setting [1]) was 6.92; on Human ALDH1A3 (setting [2]), 6.62.

Consider `CC(C)(C)c1ccc(S(=O)(=O)/C=C/C#N)cc1` [Bay-11-7085], for which the pIC50 on Human ALDH1A2 (setting [1]) was 6.42; on Human ALDH1A3 (setting [2]), 6.17.

For the compound `O=c1c(-c2ccc(O)cc2)coc2cc(O[C@@H]3O[C@H](CO)[C@@H](O)[C@H](O)[C@H]3O)ccc12` [Daidzin], the figures for the pIC50 at Human ALDH1A2 and against Human ALDH1A3 were 4.67 and 4.62, respectively.

Turning to `Nc1ccccc1C(=O)CC(N)C(=O)O` (stereo not drawn) [Kynurenine], the pIC50 was 4.62 at Human ALDH1A2 (setting [1]) and 4.57 at Human ALDH1A3 (setting [2]).

Consider `COc1cccc2cc(C(=O)CC3(O)C(=O)N(Cc4ccccc4)c4ccccc43)c(=O)oc12` (stereo not drawn) [CID 2929292], for which the figures for the pIC50 at Human ALDH1A2 (setting [1]) and on Human ALDH1A3 (setting [2]) were 5.52 and 4.62, respectively.

For the compound CVT-10216, the pIC50 is 6.47 at Human ALDH1A2 (setting [1]) and 4.57 at Human ALDH1A3 (setting [2]).

Consider `CC(C)N(C(=O)CCl)c1ccccc1` [Propachlor], for which the pIC50 at Human ALDH1A2 (hits of dual cell-based screen (Table 2), read-out: Biochemical IC50 ALDH1A2) was 6.49; on Human ALDH1A3 (setting [3]) it was 5.25.

As to `C[S+](=O)([O-])c1ccc(Cn2c3c(c4cc(F)cc(F)c42)CCCC3CC(=O)O)cc1` [L-670596], at Human ALDH1A3 (setting [3]), the pIC50 is 4.45.

With `C#CCN(C)Cc1ccccc1` [Pargyline], the negative logarithm of the IC50 (pIC50) on Human ALDH1A2 (setting [1]) was 4.62; at Human ALDH1A3 (setting [2]), 4.77.

Consider `Cc1cc2c(C(C)C)c(O)c(O)c(C=O)c2c(O)c1-c1c(C)cc2c(C(C)C)c(O)c(O)c(C=O)c2c1O` [Gossypol], for which the pIC50 against Human ALDH1A2 is 5.27; against Human ALDH1A3, 5.07.

In the case of `O=C1Nc2ccccc2C1=O` [indoline-2,3-dione], the pIC50 at Human ALDH1A2 (setting [1]) is 6.17; at Human ALDH1A3 (setting [2]), 5.12.

As for `Cc1nc2ccccc2n1S(=O)(=O)c1ccc(F)cc1` [CB7], the values for the pIC50 at Human ALDH1A2 (setting [1]) and on Human ALDH1A3 (setting [2]) were 4.82 and 4.92, respectively.
